In patent US12023319B2, “Carboxylic acid aromatic amides” (priority 2016, dated 2024):

Molecular target: T1, human Bradykinin B1 receptor (Homo sapiens, UniProt P46663)
T1 construct: host or cells: CHO-K1
T1 sequence (P46663 1-353): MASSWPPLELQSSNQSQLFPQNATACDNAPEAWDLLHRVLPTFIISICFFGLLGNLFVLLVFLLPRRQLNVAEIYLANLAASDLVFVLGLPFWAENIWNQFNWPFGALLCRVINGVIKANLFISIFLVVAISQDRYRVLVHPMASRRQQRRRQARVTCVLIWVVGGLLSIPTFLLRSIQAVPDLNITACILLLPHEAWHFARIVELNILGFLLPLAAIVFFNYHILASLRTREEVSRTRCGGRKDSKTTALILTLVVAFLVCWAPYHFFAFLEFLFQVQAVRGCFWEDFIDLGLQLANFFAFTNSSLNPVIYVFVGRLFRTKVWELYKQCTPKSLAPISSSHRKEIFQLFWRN
Test: Calcium flux assay (FLIPR), CHO-K1 cells expressing human Bradykinin B1 receptor, absence of 0.1% BSA (hB1 free IC50)
Format: cell-based
Conditions: absence of 0.1% BSA in assay buffer
Method: The potency to inhibit the Bradykinin B1 receptor was determined for the Compound Examples of this invention in a cell-based fluorescent calcium-mobilisation assay. The assay measures the ability of Compound Examples to inhibit Bradykinin B1 receptor agonist-induced increase of intracellular free Ca^2+ in the cell line expressing Bradykinin B1 receptor. Specifically, calcium indicator-loaded cells are pre-incubated in the absence or presence of different concentrations of Compound Examples followed by the stimulation with a selective Bradykinin B1 receptor agonist peptide. The change of the intracellular Ca^2+ concentration is monitored with a fluorescent plate reader FLIPR^TETRA® (Molecular Devices).
Calcium Flux Assays (FLIPR) with Cells Expressing Human Bradykinin B1 Receptor (hB1)
CHO-K1 cell line expressing human Bradykinin B1 receptor is purchased from Euroscreen (Gosselies, Belgium, with reference name hB1-D1). The cells are grown in Nutrient Mixture Ham's F12 (Sigma) containing 10% Foetal bovine serum (Sigma) and 400 μg/mL G418 (Sigma), 5 μg/mL puromycin (Sigma).
The effect of BSA on the potency of endothelin receptor antagonists have been described in the prior art (Wu-Wong, J. R. et al. (1997), JPET 281: 791-798). The teaching can be applied in analogy to testing the potency of Bradykinin B1 receptor antagonist in the FLIPR assays.
For the calcium flux assay, 80% confluent cells are detached from the culture vessels with Versene (Gibco), and seeded into 384-well plates (Cell binding Surface; Corning, NY; #3683) at a density of 15,000 cells per well. Cells are seeded in a volume of 50 μL in medium without antibiotics and incubated overnight in a humidified atmosphere with 5% CO2 at 37° C. […] The calcium indicator loaded cells are incubated at 37° C. for 2 hrs. Extracellular dye is then removed and each well is filled with 45 μL of assay buffer. Cell plates are kept in dark until used. Compound examples are assayed at 8 concentrations in triplicate. Serial 10-fold dilutions in 100% DMSO are made at a 100-times higher concentration than the final concentration, and then diluted 1:10 in assay buffer. 5 μL of each diluted compound is added to the well of cell plates (yielding final concentration with 1% DMSO), and incubated for 30 min at 28° C. before the addition of Bradykinin B1 receptor agonist on the FLIPR instrument.
The addition of agonist 20 μl per well to the assay plate is carried out on the FLIPR instrument while continuously monitoring Ca2+-dependent fluorescence at 538 nm. A peptide antagonist Lys-(Des-Arg-Leu)-Bradykinin (Bachem, Brackley) at 20 µM is used to determine the full inhibition as control.
Peak fluorescence is used to determine the response to agonist obtained at each concentration of Compound Examples by the following equation: % Response=100*(RFU(compound)−RFU(control))/(RFU(DMSO)−RFU(control))
RFU means relative fluorescence units.
Control means full inhibition by the peptide antagonist Lys-(Des-Arg-Leu)-Bradykinin at 20 µM.
The response values are plotted against the logarithm of the compound concentrations. The Compound Examples are tested in triplicates per plate and mean values are plotted in Excel XLfit to determine IC50 values, percentage of maximal inhibition and the Hill slopes.

For CC1CCC(C2(C(=O)Nc3cc(F)c(-c4cnn(C5CCC5)c4)c(C(=O)O)c3)CC2)CC1 (mixture of isomers) [Example 144, 2-(1-Cyclobutyl-1H-pyrazol-4-yl)-3-fluoro-5-({[1-(4-methylcyclohexyl)cyclopropyl]carbonyl}amino)benzoic acid], the IC50 was 320 nM.
With O=C(O)c1cc(NC(=O)C2(c3cc(F)c(F)cc3F)CC2)ccc1-c1ccc(C(F)(F)F)nc1 [Example 8, 2-[6-(Trifluoromethyl)pyridin-3-yl]-5-({[1-(2,4,5-trifluorophenyl)cyclopropyl]carbonyl}amino)benzoic acid] the IC50 was 690 nM.
In the case of O=C(O)c1cc(NC(=O)C2(c3ccc(C(F)(F)F)cc3F)CC2)ccc1-n1ccc(CC(F)(F)F)n1 [Example 15, 5-[({1-[2-Fluoro-4-(trifluoromethyl)phenyl]cyclopropyl}carbonyl)amino]-2-[3-(2,2,2-trifluoroethyl)-1H-pyrazol-1-yl]benzoic acid], the IC50 is reported as 3600 nM.
O=C(O)c1cc(NC(=O)C2(c3ccc(C(F)(F)F)cc3F)CC2)ccc1-n1cc(C(F)(F)F)cn1 [Example 16, 5-[({1-[2-Fluoro-4-(trifluoromethyl)phenyl]cyclopropyl}carbonyl)amino]-2-[4-(trifluoromethyl)-1H-pyrazol-1-yl]benzoic acid] showed an IC50 of 2800 nM.
CCC(F)(F)c1ccc(-c2ccc(NC(=O)C3(c4ccc(C(F)(F)F)cc4)CC3)cc2C(=O)O)cn1 [Example 21, 2-[6-(1,1-Difluoropropyl)pyridin-3-yl]-5-[({1-[4-(trifluoromethyl)phenyl]cyclopropyl}carbonyl)amino]benzoic acid] showed an IC50 of 710 nM.
In the case of CCC(F)(F)c1ccc(-c2ccc(NC(=O)C3(c4ccc(OC(F)(F)F)cc4)CC3)cc2C(=O)O)cn1 [Example 22, 2-[6-(1,1-Difluoropropyl)pyridin-3-yl]-5-[({1-[4-(trifluoromethoxy)phenyl]cyclopropyl}carbonyl)amino]benzoic acid], the IC50 is reported as 290 nM.
CCC(F)(F)c1ccc(-c2ccc(NC(=O)C3(c4ccc(F)cc4F)CC3)cc2C(=O)O)cn1 [Example 23, 5-({[1-(2,4-Difluorophenyl)cyclopropyl]carbonyl}amino)-2-[6-(1,1-difluoropropyl)pyridin-3-yl]benzoic acid] gave an IC50 of 2400 nM.
In the case of CCC(F)(F)c1ccc(-c2ccc(NC(=O)C3(c4ccc(Cl)cc4F)CC3)cc2C(=O)O)cn1 [Example 24, 5-({[1-(4-Chloro-2-fluorophenyl)cyclopropyl]carbonyl}amino)-2-[6-(1,1-difluoropropyl)pyridin-3-yl]benzoic acid], the IC50 is reported as 290 nM.
In the case of Cc1ccc(C2(C(=O)Nc3ccc(-c4ccc(C(C)(F)F)nc4)c(C(=O)O)c3)CC2)c(F)c1 [Example 30, 2-[6-(1,1-Difluoroethyl)pyridin-3-yl]-5-({[1-(2-fluoro-4-methylphenyl)cyclopropyl]carbonyl}amino)benzoic acid], the IC50 is reported as 410 nM.
For CC(F)(F)c1ccc(-c2ccc(NC(=O)C3(c4ccc(C(F)(F)F)cc4F)CC3)cc2C(=O)O)cn1 [Example 31, 2-[6-(1,1-Difluoroethyl)pyridin-3-yl]-5-[({1-[2-fluoro-4-(trifluoromethyl)phenyl]cyclopropyl}carbonyl)amino]benzoic acid], the IC50 was 130 nM.
CC(F)(F)c1ccc(-c2ccc(NC(=O)C3(c4ccc(OC(F)(F)F)cc4F)CC3)cc2C(=O)O)cn1 [Example 32, 2-[6-(1,1-Difluoroethyl)pyridin-3-yl]-5-[({1-[2-fluoro-4-(trifluoromethoxy)phenyl]cyclopropyl}carbonyl)amino]benzoic acid] was tested, and the IC50 was 190 nM.
CC(O)c1ccc(-c2ccc(NC(=O)C3(c4ccc(C(F)(F)F)cc4F)CC3)cc2C(=O)O)cn1 (stereo not drawn) [Example 33, 5-[({1-[2-Fluoro-4-(trifluoromethyl)phenyl]cyclopropyl}carbonyl)amino]-2-[6-(1-hydroxyethyl)pyridin-3-yl]benzoic acid] was tested, and the IC50 was 460 nM.
O=C(O)c1cc(NC(=O)C2(c3ccc(C(F)(F)F)cc3F)CC2)ccc1-c1cnn(CC(F)(F)F)c1 [Example 34, 5-[({1-[2-Fluoro-4-(trifluoromethyl)phenyl]cyclopropyl}carbonyl)amino]-2-[1-(2,2,2-trifluoroethyl)-1H-pyrazol-4-yl]benzoic acid] gave an IC50 of 31 nM.
O=C(O)c1cc(NC(=O)C2(c3ccc(Cl)cc3)CC2)cc(F)c1-c1cnn(C2CCC2)c1 [Example 35, 5-({[1-(4-Chlorophenyl)cyclopropyl]carbonyl}amino)-2-(1-cyclobutyl-1H-pyrazol-4-yl)-3-fluorobenzoic acid] was tested, and the IC50 was 26 nM.
With O=C(O)c1cc(NC(=O)C2(c3ccc(F)c(F)c3)CC2)cc(F)c1-c1cnn(C2CCC2)c1 [Example 38, 2-(1-Cyclobutyl-1H-pyrazol-4-yl)-5-({[1-(3,4-difluorophenyl)cyclopropyl]carbonyl}amino)-3-fluorobenzoic acid] the IC50 was 22 nM.
In the case of O=C(O)c1cc(NC(=O)C2(c3ccc(C(F)(F)F)cc3F)CC2)ccc1-c1cn(C2CCC2)nc1F [Example 45, 2-(1-Cyclobutyl-3-fluoro-1H-pyrazol-4-yl)-5-[({1-[2-fluoro-4-(trifluoromethyl)phenyl]cyclopropyl}carbonyl)amino]benzoic acid], the IC50 is reported as 55 nM.
O=C(O)c1cc(NC(=O)C2(c3ccc(C(F)(F)F)cc3F)CC2)ccc1-c1cc2cccnc2s1 [Example 46, 5-[({1-[2-Fluoro-4-(trifluoromethyl)phenyl]cyclopropyl}carbonyl)amino]-2-(thieno[2,3-b]pyridin-2-yl)benzoic acid] was tested, and the IC50 was 58 nM.
For O=C(O)c1cc(NC(=O)C2(c3ccc(C(F)(F)F)cc3F)CC2)ccc1-c1ccc(Cl)s1 [Example 47, 2-(5-Chloro-2-thienyl)-5-[({1-[2-fluoro-4-(trifluoromethyl)phenyl]cyclopropyl}carbonyl)amino]benzoic acid], the IC50 was 230 nM.
O=C(O)c1cc(NC(=O)C2(c3ccc(C(F)(F)F)cc3F)CC2)ccc1-c1ccc(C(F)(F)F)s1 [Example 48, 5-[({1-[2-Fluoro-4-(trifluoromethyl)phenyl]cyclopropyl}carbonyl)amino]-2-[5-(trifluoromethyl)-2-thienyl]benzoic acid] was tested, and the IC50 was 220 nM.
O=C(O)c1cc(NC(=O)C2(c3ccc(Cl)c(F)c3)CC2)ccc1-c1cnn(C2CCC2)c1 [Example 49, 5-({[1-(4-Chloro-3-fluorophenyl)cyclopropyl]carbonyl}amino)-2-(1-cyclobutyl-1H-pyrazol-4-yl)benzoic acid] showed an IC50 of 47 nM.
With O=C(O)c1cc(NC(=O)C2(c3ccc(C(F)(F)F)cc3)CC2)ccc1-c1cnn(C2CCC2)c1 [Example 50, 2-(1-Cyclobutyl-1H-pyrazol-4-yl)-5-[({1-[4-(trifluoromethyl)phenyl]cyclopropyl}carbonyl)amino]benzoic acid] the IC50 was 62 nM.
With O=C(O)c1cc(NC(=O)C2(c3cccc(Cl)c3F)CC2)ccc1-c1cnn(C2CCC2)c1 [Example 52, 5-({[1-(3-Chloro-2-fluorophenyl)cyclopropyl]carbonyl}amino)-2-(1-cyclobutyl-1H-pyrazol-4-yl)benzoic acid] the IC50 was 740 nM.
O=C(O)c1cc(NC(=O)C2(c3cc(F)ccc3F)CC2)ccc1-c1cnn(C2CCC2)c1 [Example 55, 2-(1-Cyclobutyl-1H-pyrazol-4-yl)-5-({[1-(2,5-difluorophenyl)cyclopropyl]carbonyl}amino)benzoic acid] showed an IC50 of 280 nM.
With O=C(O)c1cc(NC(=O)C2(c3ccc(F)c(Cl)c3)CC2)ccc1-c1cnn(C2CCC2)c1 [Example 56, 5-({[1-(3-Chloro-4-fluorophenyl)cyclopropyl]carbonyl}amino)-2-(1-cyclobutyl-1H-pyrazol-4-yl)benzoic acid] the IC50 was 85 nM.
